US11952387B2, “Bicyclic heteroaromatic ring derivative” (priority 2018, dated 2024)

What follows are compounds tested on HRV14 (assay: Inhibitory activity against human rhinovirus infection and replication (quantitative real-time PCR)). Conditions: Human rhinovirus sp., MRC5; 100 nmol/L test compound; MRC-5 cells infected with HRV14 at MOI=0.2; 48 hours; viral load normalized to 18s rRNA; read-out: Percent Inhibition.
Type: cell-based
Procedure: Evaluation of inhibitory activity against human rhinovirus infection and replication (by quantitative real-time PCR)
A required amount of a test compound was weighed off and dissolved in dimethyl sulfoxide (DMSO) to yield a 10 mmol/L stock solution. Next, the stock solution was diluted with a medium for viral infection (minimum essential medium (MEM) supplemented with 2% fetal bovine serum, 5% Tryptose phosphate broth, and 30 mmol/L MgCl2) to prepare 100 nmol/L and 1000 nmol/L of test compound solutions. MRC-5 (human fetal lung fibroblast: ATCC) was suspended at a density of 30000 cells/mL in cell culture medium (MEM supplemented with 10% fetal bovine serum), and 625 μL of the suspension per well was seeded into a 24-well cell culture plate and cultured at 37° C. in 5% CO2. After 72 hours, it was confirmed that the plate had become 80% confluent. The plate was washed with 625 μL of phosphate-buffered physiological saline (Ca/Mg-free; PBS-) once, and 625 μL of the test compound solution prepared just before use was immediately added to the plate. After 30 minutes, the medium was removed followed by addition of 187.5 μL of the test compound solution that had been prepared such that the cells were infected with HRV14 (ATCC) at multiplicity of infection (MOI)=0.2. The cells were then cultured at 35° C. in 5% CO2. After additional 2 hours, 625 μL of the test compound solution prepared just before use was added, and the cells were cultured at 35° C. in 5% CO2. After 48 hours, the cells were washed with 625 μL of PBS- once, and total RNA was extracted from the cells using RNeasy (R) plus kit (Qiagen) according to the manufacturer's instruction. Subsequently, cDNA was synthesized using High-Capacity cDNA Reverse Transcription Kit (Thermo Fisher Scientific). Finally, quantitative real-time PCR was performed in 7500 Fast Real-time PCR system (Life technologies) to measure HRV14 and 18s rRNA. The measurement protocol consisted of the initial denaturation phase at 95° C. for 20 seconds followed by 40 cycles of the denaturation step at 95° C. for 3 seconds and the annealing/elongation step at 60° C. for 30 seconds. The primers used were HRV14 forward primer set forth in SEQ ID NO: 1 and HRV14 reverse primer set forth in SEQ ID NO: 2, and the probe is set forth in SEQ ID NO: 3.
18s rRNA was measured using Eukaryotic 18S rRNA Endogenous Control (Applied Biosystems). According to Equation 1, 18s ribosomal RNA was used as an internal standard to normalize the viral load of HRV14: Viral load of HRV14=The amount of HRV14 in virus-infected cells/the amount of 18s rRNA in virus-infected cells Equation 1
Inhibitory activity of test compounds was calculated as a percent inhibition (%) according to Equation 2: Percent inhibition (%)=[the viral load of HRV in virus-infected cells in the absence of the test compound −the viral load of HRV in virus-infected cells in the presence of the test compound]/[the viral load of HRV in virus-infected cells in the absence of the test compound]×100 Equation 2
The results of using 100 nmol/L test compound solutions were shown in the tables below according to Examples. In the tables, percent inhibition was expressed as follows: percent inhibition >80%: +++, 80%≥percent inhibition >50%: ++, and 50%≥percent inhibition:+.
`COc1ccc(-c2c(C)nc3sc(C(C)(C)O)nn23)cc1S(=O)(=O)[C@H]1C[C@H](O)C1` [Example 2-56] was tested, and the inhibition at 0.1 µM was ≤ 50%.
For `CCOc1ccc(-c2c(C)nc3sc(C(C)(C)O)nn23)cc1S(=O)(=O)CC(C)(C)O` [Example 2-57], the inhibition at 0.1 µM was 50 to 80%.
Compound `[2H]C([2H])([2H])Oc1ccc(-c2c(C)nc3sc(C(C)(C)O)nn23)cc1S(=O)(=O)CC(C)(C)O` [Example 2-58] has an inhibition at 0.1 µM of 50 to 80%.
For `COc1ccc(-c2c(C)nc3sc(C(C)(C)O)nn23)cc1S(=O)(=O)CC(C)(O)CO` (stereo not drawn) [Example 2-59], the inhibition at 0.1 µM was ≤ 50%.
`COc1ccc(-c2c(C)nc3sc(C(C)(C)O)nn23)cc1S(=O)(=O)CC(C)(C)C#N` [Example 2-60] was tested, and the inhibition at 0.1 µM was ≤ 50%.
`COc1ccc(-c2c(C)nc3sc(C(C)(C)O)nn23)cc1S(=O)(=O)[C@@H]1CC[C@@H](O)C1` [Example 2-62] was tested, and the inhibition at 0.1 µM was ≤ 50%.
`COc1ccc(-c2c(C)nc3sc(C(C)(C)O)nn23)cc1S(=O)(=O)CC1(O)CCC1` [Example 2-63] was tested, and the inhibition at 0.1 µM was ≤ 50%.
With `COc1ccc(-c2c(C)nc3sc(C(C)(C)O)nn23)cc1S(=O)(=O)CC1(O)CCC(F)(F)CC1` [Example 2-64] the inhibition at 0.1 µM was > 80%.
With `COc1ccc(-c2c(C)nc3sc(C(C)(C)O)nn23)cc1S(=O)(=O)C1CC2(COC2)C1` [Example 2-65] the inhibition at 0.1 µM was > 80%.
In the case of `COc1ccc(-c2c(C)nc3sc(C(C)(C)O)nn23)cc1S(=O)(=O)C1(C(C)(C)O)CC1` [Example 2-66], the inhibition at 0.1 µM is reported as > 80%.
For `COc1ccc(-c2c(C)nc3sc(C(C)(C)O)nn23)cc1S(=O)(=O)C1(C(C)(C)O)CC(F)(F)C1` [Example 2-67], the inhibition at 0.1 µM was > 80%.
Work on `COc1ccc(-c2c(C)nc3sc(C(C)(C)O)nn23)cc1S(=O)(=O)C1CCC2(CC1)OCCO2` [Example 2-68] yielded an inhibition at 0.1 µM of 50 to 80%.
With `COc1ccc(-c2c(C)nc3sc(C(C)(C)O)nn23)cc1S(=O)(=O)C1CC(F)(F)C1` [Example 2-69] the inhibition at 0.1 µM was 50 to 80%.
In the case of `COc1ccc(-c2c(C)nc3sc(C(C)(C)O)nn23)cc1S(=O)(=O)[C@@H]1CC[C@](C)(O)C1` [Example 2-70], the inhibition at 0.1 µM is reported as ≤ 50%.
`COc1ccc(-c2c(C)nc3sc(C(C)(C)O)nn23)cc1S(=O)(=O)[C@H]1C[C@@H](C(C)(C)O)C1` [Example 2-71] was tested, and the inhibition at 0.1 µM was > 80%.
For `COc1ccc(-c2c(C)nc3sc(C(C)(C)O)nn23)cc1S(=O)(=O)[C@]1(C2CC2)C[C@H](O)C1` [Example 2-72], the inhibition at 0.1 µM was ≤ 50%.
With `COc1ccc(-c2c(C)nc3sc(C(C)(C)O)nn23)cc1S(=O)(=O)[C@H]1C[C@](C)(C(C)(C)O)C1` [Example 2-73] the inhibition at 0.1 µM was > 80%.
For `COc1ccc(-c2c(C)nc3sc(C(C)(C)O)nn23)cc1S(=O)(=O)[C@H]1C[C@@](C)(C(C)(C)O)C1` [Example 2-74], the inhibition at 0.1 µM was ≤ 50%.
With `COc1ccc(-c2c(C)nc3sc(C(C)(C)O)nn23)cc1S(=O)(=O)[C@]1(C)C[C@H](O)C1` [Example 2-75] the inhibition at 0.1 µM was ≤ 50%.
With `COc1ccc(-c2c(C)nc3sc(C(C)(C)O)nn23)cc1S(=O)(=O)[C@H]1C[C@](C)(O)C1` [Example 2-76] the inhibition at 0.1 µM was > 80%.
`Cc1nc2sc(C(C)(C)O)nn2c1-c1ccc(C(F)(F)F)c(S(=O)(=O)[C@H]2C[C@](C)(O)C2)c1` [Example 2-77] was tested, and the inhibition at 0.1 µM was > 80%.
With `COc1ccc(-c2c(C)nc3sc(C(C)(C)O)nn23)cc1S(=O)(=O)[C@H]1C[C@@H]1C(C)(C)O` [Example 2-78] the inhibition at 0.1 µM was ≤ 50%.
`COc1ccc(NS(=O)(=O)c2cc(-c3c(C)nc4sc(C(C)(C)O)cn34)ccc2OC)cc1` [Example 2-79] gave an inhibition at 0.1 µM of 50 to 80%.
With `COc1ccc(-c2c(C)nc3sc(C(C)(C)O)cn23)cc1S(=O)(=O)Nc1cccc(O)c1` [Example 2-80] the inhibition at 0.1 µM was ≤ 50%.
`COc1ccc(-c2c(C)nc3sc(C(C)(C)O)cn23)cc1S(=O)(=O)Nc1ccccc1O` [Example 2-81] was tested, and the inhibition at 0.1 µM was > 80%.
`COc1ccc(-c2c(C)nc3sc(C(O)(C4CC4)C4CC4)nn23)cc1S(=O)(=O)[C@H]1C[C@](C)(O)C1` [Example 2-82] was tested, and the inhibition at 0.1 µM was > 80%.
For `Cc1nc2sc(C(C)(C)O)nn2c1-c1cc2c(c(S(=O)(=O)CC(C)(C)O)c1)OCC2` [Example 2-83], the inhibition at 0.1 µM was 50 to 80%.
For `COc1ccc(-c2c(C)nc3sc(C(O)(C4CC4)C4CC4)nn23)cc1S(=O)(=O)C1CN(C(=O)OC(C)(C)C)C1` [Example 2-84], the inhibition at 0.1 µM was > 80%.
In the case of `COc1ccc(-c2c(C)nc3sc(C(C)(C)O)nn23)cc1S(=O)(=O)Nc1cccnc1` [Example 2-85], the inhibition at 0.1 µM is reported as ≤ 50%.
In the case of `COc1ccc(-c2c(C)nc3sc(C(C)(C)O)nn23)cc1S(=O)(=O)Nc1ccc(O)cc1` [Example 2-86], the inhibition at 0.1 µM is reported as > 80%.
With `Cc1nc2sc(C(O)(C3CC3)C3CC3)nn2c1-c1ccc(C(F)(F)F)c(S(=O)(=O)CC(C)(C)O)c1` [Example 2-87] the inhibition at 0.1 µM was > 80%.
`[2H]C([2H])([2H])Oc1ccc(-c2c(C)nc3sc(C(C)(C)O)cn23)cc1S(=O)(=O)N[C@H]1CC[C@@H](O)CC1` [Example 2-88] was tested, and the inhibition at 0.1 µM was ≤ 50%.
`[2H]C([2H])([2H])Oc1ccc(-c2c(C)nc3sc(C(C)(C)O)nn23)cc1S(=O)(=O)N[C@H]1CC[C@@H](O)CC1` [Example 2-89] was tested, and the inhibition at 0.1 µM was 50 to 80%.
For `[2H]C([2H])([2H])Oc1ccc(-c2c(C)nc3sc(C4CC4)nn23)cc1S(=O)(=O)NC(C)(C)CO` [Example 2-90], the inhibition at 0.1 µM was > 80%.
With `COc1ccc(-c2c(C)nc3sc(C(C)(C)O)nn23)cc1S(=O)(=O)Cc1ccccc1` [Example 2-91] the inhibition at 0.1 µM was > 80%.
For `COc1ccc(-c2c(C)nc3sc(C(C)(C)O)nn23)cc1S(=O)(=O)Cc1ccc(F)cc1` [Example 2-92], the inhibition at 0.1 µM was 50 to 80%.
`COc1ccc(-c2c(C)nc3sc(C(C)(C)O)nn23)cc1S(=O)(=O)Cc1ccc(C#N)cc1` [Example 2-93] showed an inhibition at 0.1 µM of 50 to 80%.
In the case of `COc1ccc(-c2c(C)nc3sc(C(C)(C)O)nn23)cc1S(=O)(=O)Cc1cccnc1` [Example 2-94], the inhibition at 0.1 µM is reported as 50 to 80%.
Compound `COc1ccc(-c2c(C)nc3sc(C(C)(C)O)nn23)cc1S(=O)(=O)Cc1ccncc1` [Example 2-95] has an inhibition at 0.1 µM of 50 to 80%.
With `COc1ccc(-c2c(C)nc3sc(C(O)(C4CC4)C4CC4)nn23)cc1S(=O)(=O)[C@H]1C[C@@H](O)C1` [Example 2-96] the inhibition at 0.1 µM was > 80%.
In the case of `[2H]C([2H])([2H])C(O)(CS(=O)(=O)c1cc(-c2c(C)nc3sc(C(C)(C)O)nn23)ccc1C(F)(F)F)C([2H])([2H])[2H]` [Example 2-97], the inhibition at 0.1 µM is reported as > 80%.
For `COc1ccc(-c2c(C)nc3sc(C(O)(C4CC4)C4CC4)nn23)cc1S(=O)(=O)CC(C)(C)C#N` [Example 2-98], the inhibition at 0.1 µM was > 80%.
`Cc1nc2sc(C(C)(C)O)nn2c1-c1ccc(C(F)(F)F)c(S(=O)(=O)NC2(C(C)(C)O)CC2)c1` [Example 3-2] was tested, and the inhibition at 0.1 µM was > 80%.
With `COc1ccc(-c2c(C)nc3sc(C(C)(C)O)nn23)cc1S(=O)(=O)Nc1ccc(C(C)(C)O)cc1` [Example 3-3] the inhibition at 0.1 µM was ≤ 50%.
For `COc1ccc(-c2c(C)nc3sc(C(C)(C)O)nn23)cc1S(=O)(=O)C(C)(C)CO` [Example 4-1], the inhibition at 0.1 µM was > 80%.
With `Cc1nc2sc(C(C)(C)O)nn2c1-c1ccc(C(F)(F)F)c(S(=O)(=O)C2(CO)CC2)c1` [Example 4-2] the inhibition at 0.1 µM was > 80%.
In the case of `Cc1nc2sc(C(C)(C)O)nn2c1-c1ccc(C(F)(F)F)c(S(=O)(=O)C(C)(C)CO)c1` [Example 4-3], the inhibition at 0.1 µM is reported as > 80%.
Compound `COc1ccc(-c2c(C)nc3sc(C(C)(C)O)nn23)cc1S(=O)(=O)C1(CO)CC1` [Example 4-4] has an inhibition at 0.1 µM of 50 to 80%.
